Experimental data as given in publication PMC11809180, “RA-PR058, a novel ramalin derivative, reduces BACE1 expression and phosphorylation of tau in Alzheimer’s disease mouse models” (Animal Cells and Systems, 2025).

Columns and labels:
JNK = JNK phosphorylation in cortex of 3xTg-AD mice (western blot); assay type: in vivo, mouse; conditions: 20 mg/kg oral daily 4 weeks, p-JNK normalized with JNK
Description: (§1) 3xTg-AD (B6;129-Tg(APPSwe,tauP301L)1Lfa Psen1^tm1Mpm/Mmjax) mice and their littermate wild-type (WT) mice were used in this study. Each experimental group consisted of 4–8 mice, with groups designated as WT, 3xTg-AD Vehicle, and 3xTg-AD RA-PR058. All mice were maintained in a 12-hour light/dark cycle with free access to food and water. 7-month-old age of mice were administered with 20 mg/kg of RA-PR058 orally once a day for 1 month followed by the elevated plus maze test. All animal experimental procedures were approved by the Institutional Animal Care and Use Committee of Sungkyunkwan University (SKKUIACUC2022-10-41-1).
(§2) After EPM was conducted, mice were sacrificed, and brain tissues were collected as previously described (Park et al. [2021]). Mice were anesthetized by injecting Zoletil (Virbac) and Rompun (Bayer) intraperitoneally. After mice were anesthetized, they were perfused with phosphate-buffered saline (PBS). Then, brains were extracted and cut into two hemispheres; one hemisphere was preserved in 4% paraformaldehyde and the other was dissected into the cortex and hippocampus. […]
(§3) Samples for western blot analysis were prepared as previously described (Gwon et al. [2012]). […] Protein concentrations were measured using Pierce™ BCA Protein Assay Kits (Thermo Fisher Scientific). […] Protein bands were quantified using ImageJ (NIH).

BACE1 [1] = assay: BACE1 expression in SH-SY5Y cells under H2O2 oxidative stress (western blot); assay type: cell-based, human; conditions: 10 μM RA-PR058 24 hours, then 200 μM H2O2 4 hours, normalized with β-Actin, n = 4
Description: Human neuroblastoma cell line, SH-SY5Y were maintained in DMEM (Welgene) supplemented with 10% fetal bovine serum (FBS, Gibco) and 1% penicillin/streptomycin (Capricorn) at 37 °C in a humidified atmosphere containing 5% CO2. […] [2024]). Samples for western blot analysis were prepared as previously described (Gwon et al. [2012]). Cells were lysed with T-PER^TM Tissue Protein Extraction Reagent (Thermo Fisher Scientific) supplemented with protease/phosphatase inhibitor cocktail (Thermo Fisher Scientific) and incubated at 4 °C for 10 minutes. After incubation, lysed samples were centrifuged at 13,000 x rpm for 10 minutes at 4 °C and the supernatant were used for western blot analysis. The cortices and hippocampi tissues were homogenized using RIPA lysis buffer (Millipore) supplemented with protease/phosphatase inhibitor cocktail and incubated at 4 °C for 30 minutes. Following incubation, lysed tissues were centrifuged at 13,000 x rpm for 30 minutes at 4 °C and the supernatant were used for western blot analysis. Protein concentrations were measured using Pierce^TM BCA Protein Assay Kits (Thermo Fisher Scientific). Equal amounts of proteins were mixed with NuPAGE^TM LDS Sample Buffer (Invitrogen) and 5% 2-mercaptoethanol (Sigma) and then boiled at 95 °C for 5 minutes. […] Protein bands were quantified using ImageJ (NIH).

BACE1 [2] = assay: BACE1 expression in brain of 3xTg-AD mice (western blot); assay type: in vivo, mouse; conditions: 20 mg/kg oral daily 4 weeks
Description: as §1, §2, §3

Cl.N[C@@H](CCC(=O)NNc1ccccc1F)C(F)F [RA-PR058, (S)-4-amino-5,5-difluoro-N'-(2-fluorophenyl)pentanehydrazide hydrochloride]
JNK phosphorylation (JNK): significantly downregulated
H2O2-induced increase in BACE1 expression (BACE1 [1]): markedly attenuated
Cortical BACE1 expression (BACE1 [2]; cortex, normalized with β-Actin): significantly reduced
BACE1 expression in the hippocampus (BACE1 [2]; hippocampus): did not affect
